We go through eleven compounds from US11498928B2, “Macrocyclic spiroethers as Mcl-1 inhibitors” (ASCENTAGE PHARMA (SUZHOU) CO., LTD., priority 2019, dated 2022).

The target of assay [1] is T1, Mcl-1 protein (residues 171-323) (Homo sapiens, UniProt Q07820).
T1 construct: Tag-free Mcl-1 protein (residues 171-323) was used in the FP assay
Nature of the assay: Inhibition of Mcl-1 by fluorescence polarization (FP) competitive binding assay with FAM-Bid tracer. To be noted: 2 nM FAM-Bid, 20 nM Mcl-1, 30 min. In a few lines:
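Ten-point compound titrations compete against 2 nM fluorescein-Bid for 20 nM Mcl-1 (171-323, untagged). Incubation 30 min RT in PBS buffer with BGG and Triton, 5% DMSO final. mP reduction fitted by sigmoidal nonlinear regression for IC50.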
A general note: In fluorescence polarisation assays a small probe gives low polarisation when free and higher when bound to something large.

Another assay concerns OPM-2 cells. In words: Cell viability assay (OPM-2 cells), CCK-8. The format is cell-based. To be noted: Homo sapiens, OPM-2, 24 h, 5% FBS. In outline: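 Viability read by CCK-8 absorbance (450 nm, 4 h reagent incubation) after 24 h compound exposure of 20000 OPM-2 cells per well at 37 °C. IC50 fitted by nonlinear regression on vehicle-normalized signal.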
A further assay has as its system NCI-H929 cells. In words: Cell viability assay (NCI-H929 cells), CCK-8. Format: cell-based. The note with it: Homo sapiens, NCI-H929, 24 h, 5% FBS. In outline:
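Viability of NCI-H929 cells was measured using the Cell Counting Kit-8. After 24 hrs of compound exposure, 10 μL of CCK-8 solution per well was incubated for 1-4 hours, and absorbance was read at 450 nm on a BioTek Synergy 1MF. Readings were normalized to vehicle (DMSO) cells, and IC50 values were derived by nonlinear regression in GraphPad Prism 6.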

T1 sequence (Q07820 171-323): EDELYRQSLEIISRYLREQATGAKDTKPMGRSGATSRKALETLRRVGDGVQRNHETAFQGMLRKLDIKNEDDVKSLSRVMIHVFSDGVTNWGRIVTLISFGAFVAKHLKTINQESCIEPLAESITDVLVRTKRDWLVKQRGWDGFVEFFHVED

The term IC50 denotes the concentration that inhibits the measured activity by half. Turning to `CO[C@@]1(CN2CCC(N3CCOCC3)CC2)C2=C[C@@H](C2)[C@H](C)[C@@H](C)S(=O)(=O)NC(=O)c2ccc3c(c2)N(C[C@@H]2CC[C@H]21)C[C@@]1(CCCc2c1ccc(Cl)c2F)CO3` [compound 37, (1S,11′R,12′S,13′R,16′R,16a′R,18a′R,E)-6-chloro-5-fluoro-16′-methoxy-11′,12′-dimethyl-16′-((4-morpholinopiperidin-1-yl)methyl)-3,4,12′,13′,16′,16a′,17′,18′,18a′,19′-decahydro-1′H,2H,3′H, 11′H-spiro[naphthalene-1,2′-[5,7]etheno[13,15]methanocyclobuta[i][1,4]oxazepino[3,4-f][1]thia[2,7]diazacyclohexadecin]-8′(9′H)-one 10′,10′-dioxide], the IC50 in assay [1] turned out to be 17 nM; with OPM-2 cells, 63 nM; in the assay with NCI-H929 cells, 12 nM.

Turning to `CO[C@@]1(CN2CCN(S(C)(=O)=O)CC2)C2=C[C@@H](C2)[C@H](C)[C@@H](C)S(=O)(=O)NC(=O)c2ccc3c(c2)N(C[C@@H]2CC[C@H]21)C[C@@]1(CCCc2c1ccc(Cl)c2F)CO3` [compound 38, (1S,11′R,12′S,13′R,16′R,16a′R,18a′R,E)-6-chloro-5-fluoro-16′-methoxy-1′,12′-dimethyl-16′-((4-(methylsulfonyl)piperazin-1-yl)methyl)-3,4,12′,13′,16′,16a′,17′,18′,18a′,19′-decahydro-1′H,2H,3′H,11′H-spiro[naphthalene-1,2′-[5,7]etheno[13,15]methanocyclobuta[i][1,4]oxazepino[3,4-f][1]thia[2,7]diazacyclohexadecin]-8′(9′H)-one 10′,10′-dioxide], the 50% inhibitory concentration (IC50) in assay [1] turned out to be 15 nM; in the assay on OPM-2 cells it was 30 nM; in the assay with NCI-H929 cells, 50 nM.

With `CO[C@@]1(CN2CCN(C)C(=O)C2)C2=C[C@@H](C2)[C@H](C)[C@@H](C)S(=O)(=O)NC(=O)c2ccc3c(c2)N(C[C@@H]2CC[C@H]21)C[C@@]1(CCCc2c1ccc(Cl)c2F)CO3` [compound 39, (1S,11′R,12′S,13′R,16′R,16a′R,18a′R,E)-6-chloro-5-fluoro-16′-methoxy-11′,12′-dimethyl-16′-((4-methyl-3-oxopiperazin-1-yl)methyl)-3,4,12′,13′,16′,16a′,17′,18′,18a′,19′-decahydro-1′H,2H,3′H, 11′H-spiro[naphthalene-1,2′-[5,7]etheno[13,15]methanocyclobuta[i][1,4]oxazepino[3,4-f][1]thia[2,7]diazacyclohexadecin]-8′(9′H)-one 10′,10′-dioxide], the half-maximal inhibitory concentration (IC50) stood at 14 nM in assay [1], 62 nM in the assay on OPM-2 cells and 7.7 nM in the assay on NCI-H929 cells.

As to `CO[C@@]1(CN2C[C@@H](C)N(C)[C@@H](C)C2)C2=C[C@@H](C2)[C@H](C)[C@@H](C)S(=O)(=O)NC(=O)c2ccc3c(c2)N(C[C@@H]2CC[C@H]21)C[C@@]1(CCCc2c1ccc(Cl)c2F)CO3` [compound 40, (1S,11′R,12′S,13′R,16′R,16a′R,18a′R,E)-6-chloro-5-fluoro-16′-methoxy-11′,12′-dimethyl-16′-(((3S,5R)-3,4,5-trimethylpiperazin-1-yl)methyl)-3,4,12′,13′,16′,16a′,17′,18′,18a′,19′-decahydro-1′H,2H,3′H,11′H-spiro[naphthalene-1,2′-[5,7]etheno[13,15]methanocyclobuta[i][1,4]oxazepino[3,4-f][1]thia[2,7]diazacyclohexadecin]-8′(9′H)-one 10′,10′-dioxide], the values for the 50% inhibitory concentration (IC50) (in assay [1]; with OPM-2 cells; in the assay on NCI-H929 cells) were 17 nM, 55 nM and 2.6 nM, respectively.

Take `CO[C@@]1(CN2CCNCC2)C2=C[C@@H](C2)[C@H](C)[C@@H](C)S(=O)(=O)NC(=O)c2ccc3c(c2)N(C[C@@H]2CC[C@H]21)C[C@@]1(CCCc2c1ccc(Cl)c2F)CO3` [compound 41, (1S,11′R,12′S,13′R,16′R,16a′R,18a′R,E)-6-chloro-5-fluoro-16′-methoxy-11′,12′-dimethyl-16′-(piperazin-1-ylmethyl)-3,4,12′,13′,16′,16a′,17′,18′,18a′,19′-decahydro-1′H,2H,3′H, 11′H-spiro[naphthalene-1,2′-[5,7]etheno[13,15]methanocyclobuta[i][1,4]oxazepino[3,4-f][1]thia[2,7]diazacyclohexadecin]-8′(9′H)-one 10′,10′-dioxide]: the 50% inhibitory concentration (IC50) is 26 nM in assay [1], 156 nM in the assay with OPM-2 cells and 190 nM in the assay with NCI-H929 cells.

Consider `CO[C@@]1(CN2CCNC(=O)C2)C2=C[C@@H](C2)[C@H](C)[C@@H](C)S(=O)(=O)NC(=O)c2ccc3c(c2)N(C[C@@H]2CC[C@H]21)C[C@@]1(CCCc2c1ccc(Cl)c2F)CO3` [compound 42, (1S,11′R,12′S,13′R,16′R,16a′R,18a′R,E)-6-chloro-5-fluoro-16′-methoxy-11′,12′-dimethyl-16′-((3-oxopiperazin-1-yl)methyl)-3,4,12′,13′,16′,16a′,17′,18′,18a′,19′-decahydro-1′H,2H,3′H, 11′H-spiro[naphthalene-1,2′-[5,7]etheno[13,15]methanocyclobuta[i][1,4]oxazepino[3,4-f][1]thia[2,7]diazacyclohexadecin]-8′(9′H)-one 10′,10′-dioxide], for which the IC50 in assay [1] worked out at 13 nM; in the assay with OPM-2 cells, 66 nM; with NCI-H929 cells, 51 nM.

Turning to `CO[C@@]1(CN2C[C@@H](C)N[C@@H](C)C2)C2=C[C@@H](C2)[C@H](C)[C@@H](C)S(=O)(=O)NC(=O)c2ccc3c(c2)N(C[C@@H]2CC[C@H]21)C[C@@]1(CCCc2c1ccc(Cl)c2F)CO3` [compound 43, (1S,11′R,12′S,13′R,16′R,16a′R,18a′R,E)-6-chloro-16′-(((3S,5R)-3,5-dimethylpiperazin-1-yl)methyl)-5-fluoro-16′-methoxy-11′,12′-dimethyl-3,4,12′,13′,16′,16a′,17′,18′,18a′,19′-decahydro-1′H,2H,3′H,11′H-spiro[naphthalene-1,2′-[5,7]etheno[13,15]methanocyclobuta[i][1,4]oxazepino[3,4-f][1]thia[2,7]diazacyclohexadecin]-8′(9′H)-one 10′,10′-dioxide], the IC50 in assay [1] worked out at 15 nM; in the assay with OPM-2 cells, 47 nM; in the assay with NCI-H929 cells, 35 nM.

For `CCO[C@@]1(CN2CCN3CCOC[C@@H]3C2)C2=C[C@@H](C2)[C@H](C)[C@@H](C)S(=O)(=O)NC(=O)c2ccc3c(c2)N(C[C@@H]2CC[C@H]21)C[C@@]1(CCCc2c1ccc(Cl)c2F)CO3` [compound 44, (1S,11′R,12′S,13′R,16′R,16a′R,18a′R,E)-6-chloro-16′-ethoxy-5-fluoro-16′-(((S)-hexahydropyrazino[2,1-c][1,4]oxazin-8(1H)-yl)methyl)-11′,12′-dimethyl-3,4,12,′13′,16′,16a′,17′,18′,18a′,19′-decahydro-1′H,2H,3′H,11′H-spiro[naphthalene-1,2′-[5,7]etheno[13,15]methanocyclobuta[i][1,4]oxazepino[3,4-f][1]thia[2,7]diazacyclohexadecin]-8′(9′H)-one 10′,10′-dioxide], the IC50 in assay [1] came to 11 nM; in the assay on OPM-2 cells, 48 nM; with NCI-H929 cells, 17 nM.

Regarding `CCO[C@@]1(CN2CCN3CCOC[C@H]3C2)C2=C[C@@H](C2)[C@H](C)[C@@H](C)S(=O)(=O)NC(=O)c2ccc3c(c2)N(C[C@@H]2CC[C@H]21)C[C@@]1(CCCc2c1ccc(Cl)c2F)CO3` [compound 45, (1S,11′R,12′S,13′R,16′R,16a′R,18a′R,E)-6-chloro-16′-ethoxy-5-fluoro-16′-(((R)-hexahydropyrazino[2,1-c][1,4]oxazin-8(1H)-yl)methyl)-11′,12′-dimethyl-3,4,12,′13′,16′,16a′,17′,18′,18a′,19′-decahydro-1′H,2H,3′H,11′H-spiro[naphthalene-1,2′-[5,7]etheno[13,15]methanocyclobuta[i][1,4]oxazepino[3,4-f][1]thia[2,7]diazacyclohexadecin]-8′(9′H)-one 10′,10′-dioxide], the IC50 worked out at 15 nM in assay [1], 105 nM in the assay on OPM-2 cells and 46 nM in the assay with NCI-H929 cells.

`CCO[C@@]1(C(=O)N2CCN3CCOC[C@@H]3C2)C2=C[C@@H](C2)[C@H](C)[C@@H](C)S(=O)(=O)NC(=O)c2ccc3c(c2)N(C[C@@H]2CC[C@H]21)C[C@@]1(CCCc2c1ccc(Cl)c2F)CO3` [compound 46, (1S,11′R,12′S,13′R,16′R,16a′R,18a′R,E)-6-chloro-16′-ethoxy-5-fluoro-11′,12′-dimethyl-16′-((S)-octahydropyrazino[2,1-c][1,4]oxazine-8-carbonyl)-3,4,12′,13′,16′,16a′,17′,18′,18a′,19′-decahydro-1′H,2H,3′H,11′H-spiro[naphthalene-1,2′-[5,7]etheno[13,15]methanocyclobuta[i][1,4]oxazepino[3,4-f][1]thia[2,7]diazacyclohexadecin]-8′(9′H)-one 10′,10′-dioxide]: the IC50 stood at 13 nM in assay [1], 325 nM in the assay on OPM-2 cells and 200 nM in the assay on NCI-H929 cells.

Turning to `C[C@@H]1[C@@H](C)S(=O)(=O)NC(=O)c2ccc3c(c2)N(C[C@@H]2CC[C@H]2[C@](O)(CN2CCN4CCOC[C@@H]4C2)C2=C[C@H]1C2)C[C@@]1(CCCc2c1ccc(Cl)c2F)CO3` [compound 47, (1S,11′R,12′S,13′R,16′R,16a′R,18a′R,E)-6-chloro-5-fluoro-16′-(((S)-hexahydropyrazino[2,1-c][1,4]oxazin-8(1H)-yl)methyl)-16′-hydroxy-11′,12′-dimethyl-3,4,12,′13′,16′,16a′,17′,18′,18a′,19′-decahydro-1′H,2H,3′H,11′H-spiro[naphthalene-1,2′-[5,7]etheno[13,15]methanocyclobuta[i][1,4]oxazepino[3,4-f][1]thia[2,7]diazacyclohexadecin]-8′(9′H)-one 10′,10′-dioxide], the IC50 in assay [1] turned out to be 13 nM; in the assay with OPM-2 cells, 32 nM; in the assay with NCI-H929 cells, 5.8 nM.
